Measured values taken from US20220016049A1, “TISSUE REPAIR” (Regenall Limited, priority 2019, published 2022).

Legend:
Tendon injury = Tendon injury in a horse, recovery following treatment with vitamin A (case report); assay type: in vivo; conditions: retinyl palmitate oral 750,000 IU twice daily, at least 4 weeks
Text: Tendon Injury—Recovery Following Treatment with Vitamin A [table] [table] Treatment with Vitamin A was initiated approximately 20 days after the initial injury. Retinyl palmitate (93.8% Retinol Equivalent) Oral 750,000 IU […] Continuing (at least 4 weeks) Functional recovery has been good considering the severity of the lesion. […] It is not uncommon for such lesions to take between 12 to 18 months to heal.

Spinal cord injury = experiment: Patient-reported outcome measure, spinal cord injury, recovery following treatment with vitamin A; assay type: in vivo, human
Text: Patient-Reported Outcome Measure
Spinal Cord Injury—Recovery Following Treatment with Vitamin A
Vitamin A 50,000 IU (from Retinyl palmitate and fish liver oil)
Starting in October 2018. For three months taking vitamin A 10,000×3. Increasing in end January 2019 10,000×5.
Vitamin A (from cod liver oil and vitamin A palmitate)
For 3 months 3 tablets a day and for 3 months 5 tablets a day
21 years later in February 2019
I take 50,000 IU in one administration in the morning daily
Continuing: Almost 2 months

[1] = horse; cited from earlier work

Vitamin A
Functional recovery (Tendon injury; Horse subject 1 (polo pony, 14 years), started approximately 20 days after injury): good
Size of the lesion (ultrasonography) (Tendon injury; Horse subject 1): good reduction in the size of the lesion
Pain reduction (right lower back) (Spinal cord injury; Human Subject 1, injury 1963 (T4), oral 50,000 IU once daily, 3 months, started 56 years after injury): 10-15%
Duration of pain (Spinal cord injury; Human Subject 1, oral 50,000 IU once daily, 3 months): much less
First recovery found (walking control, balance) (Spinal cord injury; Human Subject 2, spinal stenosis, both legs paralyzed, oral 30,000 IU per day for 3 months from October 2018): more walking control and balance
Strength, balance and movement control (Spinal cord injury; Human Subject 2, March 2019, oral 50,000 IU per day from end of January 2019): much stronger, more balanced, more movement control
Walking without any support on even level (Spinal cord injury; Human Subject 2, beginning of April 2019, oral 50,000 IU per day): 30-50 meters
Improvement of pain level (Spinal cord injury; Human Subject 3, disc/nerve pain around knee, oral 50,000 IU daily, 4-5 months): 80%
Neck flexibility (Spinal cord injury; Human Subject 4, injury at C4/C5 in 1998, oral 50,000 IU daily, almost 2 months, started 21 years after injury): much more flexible
Neck aching (Spinal cord injury; Human Subject 4, oral 50,000 IU daily, almost 2 months): largely disappeared
Vitamin A toxicity level [1]: around 1,000 IU/kg body weight (BW)/day
